# Experimental data reported in patent US9597359B2, “Production of dentin, cementum and enamel by cells” (The Trustees of Columbia University in the City of New York, priority 2010, dated 2017).
# B1: Wnt3A: Wnt3A used at 50 ng/ml on human PDL cells as comparator (protein, UniProt P56704 19-352, looked up)
# Protein Wnt-3a: SYPIWWSLAVGPQYSSLGSQPILCASIPGLVPKQLRFCRNYVEIMPSVAEGIKIGIQECQHQFRGRRWNCTTVHDSLAIFGPVLDKATRESAFVHAIASAGVAFAVTRSCAEGTAAICGCSSRHQGSPGKGWKWGGCSEDIEFGGMVSREFADARENRPDARSAMNRHNNEAGRQAIASHMHLKCKCHGLSGSCEVKTCWWSQPDFRAIGDFLKDKYDSASEMVVEKHRESRGWVETLRPRYTYFKVPTERDLVYYEASPNFCEPNPETGSFGTRDRTCNVSSHGIDGCDLLCCGRGHNARAERRREKCRCVFHWCCYVSCQECTRVYDVHTCK
# Experiments:
# DSCs = test: cell proliferation by cell number count; format: cell-based; settings: 3000 cells seeded, counted every 2 days
# Protocol: 3000 cells were seeded in the 12 well plate and the cell number was counted every 2 days (see e.g., FIG. 28A-B).
# [1] = test system: Wnt signaling reporter TOPFLASH; test: Wnt signaling reporter TOPFLASH luciferase activity in PDL cells; format: cell-based, human; settings: 48 hours after treatment
# Protocol: (§1) PDL cells were treated with amelogenin for 16 hours. The active beta catenin level were determined by western blotting (see e.g., FIG. 18A). […] Wnt signaling reporter TOPFLASH was transfected into PDL cells and then the cells were treated with amelogenin. The luciferase activity was measured 48 hours after treatment (see e.g., FIG. 18C). The primary osteoblasts were isolated from Wnt signaling reporter mice, TOPGAL. 48 hours after treatment, the LacZ activity was measured (see e.g., FIG. 18D). Fibrin gel containing 50 μg/ml was implanted subcutaneously into the TOPGAL mice. 1 week post-implantation, the gel was harvested. LacZ staining was performed. […] Recombinant amelogenin is 6×His tagged. The distribution of amelogenin is shown overlapped with the beta catenin signaling as indicated by the LacZ staining (see e.g., FIG. 18F).
# beta catenin [2] = test: beta catenin translocation by immunofluorescence staining in PDL cells; format: cell-based, human
# Protocol: The PDL cells were treated with recombinant amelogenin overnight. The translocation of beta catenin was determined by immunofluorescence staining (see e.g., FIG. 7A-F). Briefly, the cells were fixed with formalin for 5 min and treated with PBS with 0.1% triton for 5 min. The cells were then incubated with anti-beta catenin antibody overnight, after washing with PBS with 0.5% Tween-20, then incubated with secondary antibody labeled with fluorescence dye. […] Meanwhile, the PDL cells treated with amelogenin were lysed with PBS lysis buffer containing 1% NP-40 and protease inhibitor, phosphotase inhibitor cocktails. The non-phosphorylated beta catenin levels were determined by western blotting using anti-active beta catenin antibody (anti-ABC, millipore) (see e.g., FIG. 7G).
# PDL cells were treated with amelogenin for 16 hours. The active beta catenin level were determined by western blotting (see e.g., FIG. 18A). […] Wnt signaling reporter TOPFLASH was transfected into PDL cells and then the cells were treated with amelogenin. The luciferase activity was measured 48 hours after treatment (see e.g., FIG. 18C). The primary osteoblasts were isolated from Wnt signaling reporter mice, TOPGAL. 48 hours after treatment, the LacZ activity was measured (see e.g., FIG. 18D). Fibrin gel containing 50 μg/ml was implanted subcutaneously into the TOPGAL mice. 1 week post-implantation, the gel was harvested. […]
# beta catenin [3] = test: beta catenin translocation by immunofluorescence staining in dental pulp cells; format: cell-based, human; settings: dental pulp cells treated with recombinant amelogenin overnight
# Protocol: (§2) The dental pulp cells were treated with recombinant amelogenin overnight. The translocation of beta catenin was determined by immunofluorescence staining (see e.g., FIG. 8A-F). Briefly, the cells were fixed with formalin for 5 min and treated with PBS with 0.1% triton for 5 min. The cells were then incubated with anti-beta catenin antibody overnight, after washing with PBS with 0.5% Tween-20, then incubated with secondary antibody labeled with fluorescence dye. […] The PDL cells treated with amelogenin were lysed with PBS lysis buffer containing 1% NP-40 and protease inhibitor, phosphatase inhibitor cocktails. The non-phosphorylated beta-catenin levels were determined by western blotting using anti-active beta catenin antibody (anti-ABC, millipore) (see e.g., FIG. 8G).
# dental pulp cells = test: DSP immunostaining of dental pulp cells; format: cell-based, human; settings: amelogenin group
# From the text: Immunostaining verified DSP-positive cells in the amelogenin group (see e.g., FIG. 27A-B″).
# beta catenin signaling = test: fibrin gel implanted subcutaneously into TOPGAL mice, LacZ staining; format: in vivo; settings: fibrin gel containing 50 μg/ml, subcutaneous, 1 week post-implantation
# Protocol: as §1
# PDL cells [4] = test: Alkaline phosphatase and von Kossa staining of PDL cells in osteogenic media; format: cell-based, human; settings: chemically-defined osteogenic media
# Protocol: (§3) Human PDL cells were seeded in the 6 well plate and cultured in presence of 50 μg/ml ascorbic acid. The cells were treated with amelogenin. […] The total RNA was extracted and the expression of type I collagen was determined by Real Time PCR (see e.g., FIG. 17B). […] PDL cells were treated with amelogenin in the chemically-defined osteogenic media (see FIG. 17C).
# active beta catenin = active beta catenin western blotting, PDL cells; format: cell-based, human; settings: PDL cells treated for 16 hours
# Protocol: as §1
# [5] = test system: dental pulp stem cells or periodontal ligament stem cells; test: osteogenic and odontogenic differentiation of dental pulp and periodontal ligament stem cells; format: cell-based, human; settings: culture with amelogenin (e.g., recombinant)
# Protocol: Exfoliating deciduous incisors and permanent third molars of multiple donors were collected. Dental pulp (DP) and periodontal ligament (PDL) stem cells were isolated and enzyme-digested per known methods (Yang et al., 2010, Clones of ectopic stem cells in the regeneration of muscle defects in vivo. PloS One. 2010 Oct. 20; 5 (10)). Mononucleated and adherent cells were cultured in DMEM-LG medium containing 10% FBS and 1% antibiotics in 10 cm cell culture dishes. These isolated cells contain single clones of multipotent stem cells that readily express sternness markers such as Stro-1, Oct4, Nanog, and CD146. DSCs and PDL cells were expanded and subjected to osteogenic and odontogenic differentiation. Briefly, DP and PDL stem cells were cultured in DMEM-LG medium containing 10% FBS, 50 μg/ml ascorbic acid and 1 mM 2-glycerophosphate in the presence or absence of recombinant amelogenin. The osteoaenic and odontoaenic differentiation was determined by the expression of RUNX2, dentin sialophosphoprotein (DSPP) and Dentin Matrix Protein 1 (DMP-1) by Real Time PCR, as well as Von Kossa and alkaline phosphatase staining. The level of active […] was measured by immune-fluorescence staining and western blotting.
# Human PDL cells [6] = test: von Kossa staining of human PDL cells treated with amelogenin, BIO or Wnt3A; format: cell-based; settings: 2 weeks; amelogenin 5 μg/ml, BIO 1 μg/ml, Wnt3A 50 ng/ml
# Protocol: The human PDL cells were treated with amelogenin, BIO, or Wnt3A as indicated for 2 weeks.
# [7] = test system: Wnt signaling reporter (TOPGAL osteoblasts); test: LacZ activity in primary osteoblasts from TOPGAL mice; format: cell-based; settings: 48 hours after treatment
# Protocol: as §1
# [8] = test system: non-phosphorylated beta-catenin; test: non-phosphorylated beta-catenin western blotting, dental pulp cells; format: cell-based, human; settings: anti-active beta catenin antibody
# Protocol: as §2
# Human PDL cells [9] = test: type I collagen expression by Real Time PCR in human PDL cells; format: cell-based; settings: 2 weeks post-treatment
# Protocol: as §3
# PDL cells [10] = test: differentiation markers by Real Time PCR in PDL cells in osteogenic media; format: cell-based, human; settings: chemically-defined osteogenic media
# Protocol: as §3
# Human PDL cells [11] = test: trichrome staining of collagen matrix in human PDL cells; format: cell-based; settings: 50 μg/ml ascorbic acid, 2 weeks post-treatment
# Protocol: as §3
# [12] = test system: Mesenchymal stem cell C3H10t1/2 cells; test: ALP and Van Kossa staining of C3H10t1/2 cells in osteogenic medium; format: cell-based; settings: C3H10t1/2, osteogenic medium
# Protocol: Mesenchymal stem cell C3H10t1/2 cells were cultured in osteogenic medium for 2 weeks (see e.g., FIG. 14A).
# (§4) At 3 weeks, amelogenin-treated cells were positive for both ALP and Van Kossa (see e.g., FIG. 15A-B). […] However, the cells tested negative for DSPP.
# [13] = test system: Mesenchymal stem cell C3H10t1/2 cells; test: RT-PCR marker expression in C3H10t1/2 cells in osteogenic medium; format: cell-based; settings: C3H10t1/2, osteogenic medium
# From the text: as §4
# [14] = test system: Dental pulp stem cells (DPSCs); test: marker gene expression by RT-PCR in dental pulp stem cells in osteogenic medium; format: cell-based, human; settings: 3 weeks
# Protocol: Dental pulp stem cells (DPSCs) were cultured in osteogenic medium for 3 weeks (see e.g., FIG. 13A-B). The osteogenic differentiation was determined by ALP and Van Kossa staining (see e.g., FIG. 13B). The expression of marker genes, RunX2 and DSPP, were determined by RT-PCR (see e.g., FIG. 13C).
# PDL cells [15] = test: cell count of PDL cells; format: cell-based, human; settings: counted at 0, 2 and 4 days
# Protocol: PDL cells and dental pulp cells (DPSC) were seeded in 12 well plate with the cells number indicated. The cell treated with amelogenin and cell number were counted at 0, 2, and 4 days (see e.g., FIG. 9A-B).
# Human PDL cells [16] = test: Von Kossa staining of human PDL cells transfected with ICAT plasmid; format: cell-based; settings: osteogenic media, 2 weeks
# Protocol: Human PDL cells were transfected with the Wnt signaling inhibitor, ICAT plasmid. The cells were treated with amelogenin in the osteogenic media for 2 weeks.
molecule,measurement,setting,value
amelogenin,cell proliferation (cell number),DSCs,more rapid proliferation
same,Wnt activity (TOPFLASH luciferase activity),[1],increased
same,nuclear translocalization of beta catenin,beta catenin [2]; PDL cells treated for 16 hours,nuclear translocalization
same,translocation of beta catenin,beta catenin [2]; PDL cells treated with recombinant amelogenin overnight,beta catenin translocalized into nucleus
same,translocation of beta catenin,beta catenin [3],beta catenin translocalized into nucleus
same,DSP immunostaining,dental pulp cells,DSP-positive
same,LacZ staining around implanted gel,beta catenin signaling,LacZ positive cells were found in the surrounding area of the gel
same,cell differentiation (Alkaline phosphatase and von Kossa staining),PDL cells [4],cell differentiation was confirmed
same,active beta catenin level,active beta catenin,exhibited active beta-catenin levels
same,ALP and Van Kossa staining,[5],increased
same,DSPP expression,[5],increased
same,cell differentiation (von Kossa staining),Human PDL cells [6],cell differentiation
same,LacZ activity,[7],increased
same,non-phosphorylated beta-catenin levels,[8],increased
same,type I collagen mRNA,Human PDL cells [9],upregulate
same,differentiation markers (Real Time PCR),PDL cells [10],upregulation
same,collagen matrix synthesis (trichrome staining),Human PDL cells [11],promote the PDL cells matrix synthesis
same,ALP staining,[12]; 2 weeks,positive
same,Van Kossa staining,[12]; 2 weeks,negative
same,ALP staining,[12]; 3 weeks,positive
same,Van Kossa staining,[12]; 3 weeks,positive
same,DSPP,[13]; 3 weeks,negative
same,RunX2 expression,[13]; RT-PCR,induced
same,DSPP expression,[14],DSPP-positive
same,cell counts,PDL cells [15],temporal increase in cell counts
same,cell differentiation (Von Kossa staining),Human PDL cells [16],demonstrated cell differentiation
"O=C1Nc2cc(Br)ccc2/C1=C1/Nc2ccccc2/C1=N\O [BIO, reference compound]",cell differentiation (von Kossa staining),Human PDL cells [6],cell differentiation
B1,cell differentiation (von Kossa staining),Human PDL cells [6],cell differentiation
